Like-named read-outs stand apart in the source and are kept apart here.
Key:
Assay type in all cases: cell-based
[1] = tested on: VP01 (suspected fungal vaginal pathogen); test: Zone of inhibition against isolated vaginal pathogen VP01
Source text: (§1) Antimicrobial activities against isolated vaginal pathogens (i.e. VP01, VP02, VP06, VP03, VP04 and VP05) were individually screened and analyzed to conclude and find effective probiotic compositions.
(§2) Different combination of selected probiotics strains with variation in potency were formed and underwent potential antimicrobial effect against isolated vaginal bacterial and fungal pathogens. The extents of zone of inhibition in antimicrobial activity were considered for selection of formulation. The probiotic compositions of the present invention comprise (a) Bacillus coagulans (B.C.); (b) Bacillus subtilis (B.S.); (c) citric acid (CA); (d) gallic acid (GA); (e) beta-cyclodextrin (adhesive); (f) allentoin and (g) a pH regulator (h) lanolin (i) polyethylene glycol (j) a cooling agent etc., and (k) a bioadhesive.
(§3) The zones of inhibition were also examined for each individual components at the same concentration levels as present in the respective combined formulations.

[2] = tested on: VP02 (suspected fungal vaginal pathogen); test: Zone of inhibition against isolated vaginal pathogen VP02
Source text: as §1, §2, §3

[3] = tested on: VP04 (suspected bacterial vaginal pathogen); test: Zone of inhibition against isolated vaginal pathogen VP04
Source text: as §1, §2, §3

[4] = tested on: VP06, identified as Candida albicans
Source text: as §1, §2, §3
Vaginal swabs obtained from infected patients were grown on Potato Dextrose Agar (PDA) media, and thereafter single colonies were re-streaked on Potato Dextrose Agar plates to obtain fungal isolates, which were designated as VP06, VP02 and VP01. Potato Dextrose Agar is a common medium usually practiced to isolate and culture various fungi only, specifically applicable for yeast or fungi.

[5] = tested on: VP05 (suspected bacterial vaginal pathogen); test: Zone of inhibition against isolated vaginal pathogen VP05
Source text: as §1, §2, §3

[6] = tested on: VP03, identified as Gardnerella vaginalis; test: Zone of inhibition against isolated vaginal pathogen VP03
Source text: as §1, §2, §3

[7] = Table 1 initial studies, n-i = no zone of inhibition
[8] = Table 4, amounts as in formulation A: B.c 700, B.s 25 million cfu, CA 10, GA 100 mg, n-i = no zone
[9] = Table 5, amounts as in formulation B: B.c 550, B.s 125 million cfu, CA 20, GA 60 mg, n-i = no zone
[10] = Table 6, amounts as in formulation C: B.c 350, B.s 350 million cfu, CA 20, GA 40 mg, n-i = no zone
[11] = Table 7, amounts as in formulation D: B.c 125, B.s 550 million cfu, CA 60, GA 20 mg, n-i = no zone
[12] = Table 8, amounts as in formulation E: B.c 25, B.s 700 million cfu, CA 100, GA 10 mg, n-i = no zone

| Compound | ZONE OF INHIBITION VP01 [1, 7] | ZONE OF INHIBITION VP01 [1, 8] | ZONE OF INHIBITION VP01 [1, 9] | ZONE OF INHIBITION VP01 [1, 10] | ZONE OF INHIBITION VP01 [1, 11] | ZONE OF INHIBITION VP01 [1, 12] | ZONE OF INHIBITION VP02 [2, 7] | ZONE OF INHIBITION VP02 [2, 8] | ZONE OF INHIBITION VP02 [2, 9] | ZONE OF INHIBITION VP02 [2, 10] | ZONE OF INHIBITION VP02 [2, 11] | ZONE OF INHIBITION VP04 [3, 7] | ZONE OF INHIBITION VP04 [3, 8] | ZONE OF INHIBITION VP04 [3, 9] | ZONE OF INHIBITION VP04 [3, 10] | ZONE OF INHIBITION VP04 [3, 11] | ZONE OF INHIBITION VP04 [3, 12] | ZONE OF INHIBITION VP06 [4, 7] | ZONE OF INHIBITION VP06 [4, 8] | ZONE OF INHIBITION VP06 [4, 9] | other results |
| --- | --- | --- | --- | --- | --- | --- | --- | --- | --- | --- | --- | --- | --- | --- | --- | --- | --- | --- | --- | --- | --- |
| O=C(O)CC(O)(CC(=O)O)C(=O)O [Citric Acid (CA), citric acid] | 41 mm | n-i | n-i | 23 mm | 22 mm | 25 mm | 30 mm | n-i | n-i | n-i | n-i | 11 mm | n-i | n-i | 10 mm | 10 mm | 11 mm | n-i | n-i | n-i | ZONE OF INHIBITION VP02 ([2]; Table 8, amounts as in formulation E: B.c 25, B.s 700 million cfu, CA 100, GA 10 mg, n-i = no zone, listed as CA): n-i; ZONE OF INHIBITION VP02 ([2]; Table 8, amounts as in formulation E: B.c 25, B.s 700 million cfu, CA 100, GA 10 mg, n-i = no zone, listed as Citric acid): not active; ZONE OF INHIBITION VP06 [4, 10]: n-i; ZONE OF INHIBITION VP06 [4, 11]: n-i; ZONE OF INHIBITION VP06 [4, 12]: n-i; ZONE OF INHIBITION VP05 [5, 7]: 19 mm; ZONE OF INHIBITION VP05 [5, 8]: n-i; ZONE OF INHIBITION VP05 [5, 9]: n-i; ZONE OF INHIBITION VP05 [5, 10]: 8 mm; ZONE OF INHIBITION VP05 [5, 11]: 8 mm; ZONE OF INHIBITION VP05 [5, 12]: 10 mm; ZONE OF INHIBITION VP03 [6, 7]: 10 mm; ZONE OF INHIBITION VP03 ([6]; Table 4, amounts as in formulation A: B.c 700, B.s 25 million cfu, CA 10, GA 100 mg, n-i = no zone, listed as CA): n-i; ZONE OF INHIBITION VP03 ([6]; Table 4, amounts as in formulation A: B.c 700, B.s 25 million cfu, CA 10, GA 100 mg, n-i = no zone, listed as Citric Acid): unable to cause any inhibitory effect; ZONE OF INHIBITION VP03 [6, 9]: 7 mm; ZONE OF INHIBITION VP03 [6, 10]: 8 mm; ZONE OF INHIBITION VP03 ([6]; Table 7, amounts as in formulation D: B.c 125, B.s 550 million cfu, CA 60, GA 20 mg, n-i = no zone, listed as CA): n-i; ZONE OF INHIBITION VP03 ([6]; Table 7, amounts as in formulation D: B.c 125, B.s 550 million cfu, CA 60, GA 20 mg, n-i = no zone, listed as Citric acid): not active; ZONE OF INHIBITION VP03 [6, 12]: 9 mm |
| O=C(O)c1cc(O)c(O)c(O)c1 [Gallic Acid (GA), gallic acid] | 35 mm | 19 mm | 17 mm | 16 mm | 16 mm | 13 mm | 35 mm | 16 mm | 15 mm | 15 mm | 18 mm | 9 mm | 10 mm | 10 mm | 9 mm | 9 mm | 7 mm | 9 mm | n-i | n-i | ZONE OF INHIBITION VP02 ([2]; Table 8, amounts as in formulation E: B.c 25, B.s 700 million cfu, CA 100, GA 10 mg, n-i = no zone, listed as GA): n-i; ZONE OF INHIBITION VP02 ([2]; Table 8, amounts as in formulation E: B.c 25, B.s 700 million cfu, CA 100, GA 10 mg, n-i = no zone, listed as Gallic Acid): not active; ZONE OF INHIBITION VP06 [4, 10]: n-i; ZONE OF INHIBITION VP06 [4, 11]: N-i; ZONE OF INHIBITION VP06 [4, 12]: n-i; ZONE OF INHIBITION VP05 [5, 7]: 11 mm; ZONE OF INHIBITION VP05 [5, 8]: 7 mm; ZONE OF INHIBITION VP05 [5, 9]: 7 mm; ZONE OF INHIBITION VP05 [5, 10]: 6 mm; ZONE OF INHIBITION VP05 [5, 11]: 6 mm; ZONE OF INHIBITION VP05 [5, 12]: 6 mm; ZONE OF INHIBITION VP03 [6, 7]: n-i; ZONE OF INHIBITION VP03 [6, 8]: 8 mm; ZONE OF INHIBITION VP03 [6, 9]: 5 mm; ZONE OF INHIBITION VP03 [6, 10]: 7 mm; ZONE OF INHIBITION VP03 ([6]; Table 7, amounts as in formulation D: B.c 125, B.s 550 million cfu, CA 60, GA 20 mg, n-i = no zone, listed as GA): n-i; ZONE OF INHIBITION VP03 ([6]; Table 7, amounts as in formulation D: B.c 125, B.s 550 million cfu, CA 60, GA 20 mg, n-i = no zone, listed as Gallic Acid): not active; ZONE OF INHIBITION VP03 [6, 12]: n-i |

— patent publication US20250009815A1, “COMPOSITION FOR COMPETITIVE INHIBITION OF PATHOGENS AND RESTORATION OF MICROBIAL ECOLOGICAL BALANCE” (priority 2019, published 2025)
